For data set [1], the system named is isolated PM liver cells of CYP2D6 (Lot 64). As to the kind of experiment: Dextromethorphan metabolism in cryopreserved isolated PM liver cells of CYP2D6 (Lot 64). In kind it is in vitro ADME, human. How it is done: (§1) A preliminary test for evaluation metabolic reactions was conducted by selecting dextromethorphan (DM, analgesic agent) as the substrate of CYP2D6. Metabolism of DM in the clinical setting is known to proceed by N-demethylation, O-demethylation followed by glucuronic acid conjugation. CYP3A4 catalyzes the N-demethylation reaction, while CYP2D6 catalyzes the O-demethylation reaction. In PM of […], N-demethylation is known to proceed as a compensatory metabolic pathway of O-demethylation. In the present embodiment, metabolic reactions were examined for dextromethorphan using isolated PM liver cells of CYP2D6, and a discussion was made as to whether or not the pharmacokinetics of PM can be predicted.
(§2) The cryopreserved isolated PM liver cells of PM of CYP2D6 that were used (Lot 64) and the cryopreserved isolated EM liver cells (Lot 70) were prepared at In Vitro Technologies (IVT), USA. Liver cells for which the activity of CYP3A4 was roughly equal to that of Lot 64 of the cryopreserved isolated PM liver cells were selected by referring to data provided by IVT for use as the cryopreserved isolated EM liver cells. The acquired cells consisted of 6×10^6 cells per vial for both lots.
(§3) Krebs Henseleit buffer (adjusted to pH 7.4 following addition of calcium chloride dihydrate (0.373 g/L), sodium bicarbonate (2.1 g/L) and HEPES (1.5 g/L)) was used for the incubation medium. The cryopreserved human isolated liver cells were inoculated into a 96-well plate and used for testing while suspended in culture liquid. Dextromethorphan (DM), which is the substrate of CYP2D6, was added to the wells at final concentrations of 0.08, 0.4, 2, 10 and 50 μM and allowed to react at 37° C. The reaction liquid was sampled after 1 and 2 hours, and the parent compound (DM) along with dextrorphan (DEX: metabolite mainly produced by CYP2D6) and 3-methoxymorphinan (3-MM: metabolite mainly produced by CYP3A4) were respectively assayed. In addition, with respect to assay of the conjugate (glucuronide), DEX obtained by hydrolysis following the addition of β-glucuronidase/allylsulfatase to the sampled reaction liquid was assayed, and the difference with DEX prior to hydrolysis was taken to be the amount of the conjugate. LC/MS/MS were used for analyzing the unchanged form and metabolites in the culture liquid.
Furthermore, LC/MS/MS were carried out under the measurement conditions described below. HPLC: Waters 2790, MS: API365 Sciex, column: YMC J′ sphere ODS L80 2×35 mm, gradient: mobile phase A [CH3CN:10 mM CH3CO2NH4 aqueous solution=10:90], mobile phase B [CH3CN:10 mM CH3CO2NH4 aqueous solution=80:20], conditions [mobile phase flow rate 0.35 ml/minute, composition of mobile phase changed from A:B=100:0 to A:B=0:100 1 minute after sample injection, followed by allowing composition of A:B=0:100 to flow for 1 minute], MS/MS detection: DM=272.3/170.9, DEX=258.2/157.1, 3-MM=258.2/215.0, MDZ=326.1/291.1, 4-OH MDZ=342.1/324.1.

For data set [2], the system named is isolated EM liver cells (Lot 70). As to the kind of experiment: Dextromethorphan metabolism in cryopreserved isolated EM liver cells (Lot 70). In kind it is in vitro ADME, human. How it is done: as §1, §2
as §3, with “In addition, with respect to assay of the conjugate (glucuronide), DEX obtained by hydrolysis following the addition of β-glucuronidase/allylsulfatase to the sampled reaction liquid was assayed, and the difference with DEX prior to hydrolysis was taken to be the amount of the conjugate. LC/MS/MS were used for analyzing the unchanged form and metabolites in the culture liquid.” left out

In data set [3] the test system is PM liver microsomes. Nature of the data set: Metabolite formation in PM liver microsomes (Lot. No. HHM-0168). In kind it is in vitro ADME, human. The protocol: Incubation reactions from the determination of the enzymatic kinetic parameters were carried out at a protein concentration of 0.2 mg/ml in 100 mM potassium phosphate, pH 7.4 containing 1.3 mM NADP^+, 0.93 mM NADH, 3.3 mM glucose-6-phosphate, 8 units/ml G-6-PDH, 3.3 mM MgCl2, and substrates. Reactions were initiated by the addition of NADP^+/NADH, and then terminated after 10 min incubation at 37° C. by the addition of ten-fold volume of acetonitrile containing an LC/MS/MS internal standard (Levallorphan at 100 ng/ml final conc.). The mixtures were centrifuged for 10 min, and supernatants were used for LC/MS/MS analyses to determine the production rates of metabolites.

In data set [4] the target is CYP2D6 (Homo sapiens, UniProt P10635). As to conditions: cited from earlier work.
For data set [5] the following is noted: clinical dose level (about 20 mg/body); cited from earlier work.

Where two headings read alike, the source gives them in different places.

Chain of CYP2D6 (P10635 whole entry): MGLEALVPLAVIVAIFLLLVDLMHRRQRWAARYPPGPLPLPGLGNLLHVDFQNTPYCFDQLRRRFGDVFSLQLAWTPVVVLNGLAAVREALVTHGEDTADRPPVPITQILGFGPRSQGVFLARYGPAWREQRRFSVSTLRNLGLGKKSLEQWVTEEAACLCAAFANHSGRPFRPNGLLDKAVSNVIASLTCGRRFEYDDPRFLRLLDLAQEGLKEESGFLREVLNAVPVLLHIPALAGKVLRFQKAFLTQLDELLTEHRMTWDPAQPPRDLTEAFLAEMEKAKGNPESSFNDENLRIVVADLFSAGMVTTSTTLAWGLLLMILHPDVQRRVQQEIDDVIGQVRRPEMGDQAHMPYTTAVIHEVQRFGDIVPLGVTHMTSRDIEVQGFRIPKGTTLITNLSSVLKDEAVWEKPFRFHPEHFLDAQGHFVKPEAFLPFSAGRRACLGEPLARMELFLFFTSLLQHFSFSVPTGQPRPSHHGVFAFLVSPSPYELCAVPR

As for `COc1ccc2c(c1)[C@]13CCCC[C@@H]1[C@H](C2)N(C)CC3` [DM, dextromethorphan], the DEX formation result in data set [1] is reported as “not detected”; in data set [1] (PM liver cells, DM 10 μM and 50 μM), “formation of DEX was observed”; in data set [1] (PM, in the vicinity of concentration of DM in the blood (up to 1 μM)) it was “only slight formation of DEX”. Besides, in data set [1] (CYP2D6 PM liver cells), the “3-MM formation rate versus EM liver cells” value is on record as “greater than that in EM liver cells”. In data set [1] (FIG. 5), the “differences in 3-MM/1'OH-MDZ formation rate between PM and EM liver cells (hepatocytes)” value is on record as “large”. For the same compound, the entries for the “formation rate of 3-MM relative to DEX formation rate” value in data set [1] (PM liver cells) and in data set [2] (EM liver cells) were “comparable to the DEX formation rates” and “less than one-tenth”, respectively. In addition, the “glucuronic acid conjugation reaction (DEX-glucuronide formation)” value in data set [1] (isolated PM liver cells lot 64) and in data set [2] (isolated EM liver cells lot 70) was “clearly determined to proceed” throughout. Also, the “formation rate of metabolite DEX” value in data set [2] (EM liver cells, DM 0.08-50 μM) was “increased concentration-dependently”. Besides, in data set [3] (FIG. 6), the “differences in 3-MM/1'OH-MDZ formation rate between PM and EM liver microsomes” value is recorded as “not statically significance”. In data set [3] (PM microsomes), the compensatory metabolic pathway result is on record as “did not proceed”. Also, the Km in data set [4] was ~2 µM. For the same compound, the “concentration of DM in the blood” value in data set [5] is “up to 1 μM”.

The record behind these values is US20040043377A1, “Evaluation method for predicting pharmacokinetics of PM using PM liver cells of drug metabolozing enzyme cytochrome P450 having a genetic polymorphism” (Pfizer Inc, priority 2002, published 2004).
